US9387219B2, “Edible composition” (Conopco, Inc., priority 2011, dated 2016)

Assays:
[1] = target: T1, GLUT2 (Homo sapiens, UniProt P11168); test: Glucose transport inhibitor cell screening assay, 25 mM D-glucose for 30 minutes (GLUT2 inhibition); assay type: cell-based; details: differentiated Caco-2 monolayer, 30 minutes, active at 150 uM
T1 construct: endogenous in cells; host or cells: differentiated Caco-2 cell monolayers (ATCC)
T1 sequence (P11168 1-524): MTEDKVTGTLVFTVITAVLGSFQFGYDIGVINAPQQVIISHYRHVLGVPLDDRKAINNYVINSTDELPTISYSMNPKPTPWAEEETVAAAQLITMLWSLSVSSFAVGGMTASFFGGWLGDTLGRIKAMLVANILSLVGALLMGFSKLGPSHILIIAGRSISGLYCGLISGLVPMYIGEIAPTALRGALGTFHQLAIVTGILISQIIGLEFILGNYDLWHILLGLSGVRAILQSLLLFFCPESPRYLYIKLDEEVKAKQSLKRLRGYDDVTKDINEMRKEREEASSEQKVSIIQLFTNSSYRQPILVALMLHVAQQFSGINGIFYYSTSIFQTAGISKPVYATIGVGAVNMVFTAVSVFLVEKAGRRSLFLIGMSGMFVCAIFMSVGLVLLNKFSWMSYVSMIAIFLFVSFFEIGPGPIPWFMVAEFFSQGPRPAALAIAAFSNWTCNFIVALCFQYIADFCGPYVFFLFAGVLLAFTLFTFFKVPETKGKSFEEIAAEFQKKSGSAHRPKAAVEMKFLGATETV
Experimental: (§1) Human epithelial colorectal adenocarcinoma (Caco-2) cells were obtained from the American Type Culture Collection (ATCC) and cultured in Growth Medium consisting of Dulbecco's modified Eagle's medium (containing Glutamax-1, 4.5 g/L D-glucose and 25 mM 4-(2-hydroxyethyl)-1-piperazine ethanesulphonic acid (Hepes) (Invitrogen)), 10% foetal bovine serum (Sigma), 1% non-essential amino acids (Invitrogen) and 1 mM sodium pyruvate (Sigma)). The cells were routinely passaged at approximately 80% confluence using TrypLE™ Express Stable Trypsin-Like Enzyme (Invitrogen) to detach the cells, and seeded at approximately 114 cells per mm^2 in fresh tissue culture flasks. Only cells between the passage numbers 45 and 49 were used for experiments.
(§2) Corning® HTS Transwell® 96 well permeable insert supports (Sigma) were collagen coated with 40 μl of 50 μg/ml rat tail collagen type I (BD Biosciences) in 0.02 M acetic acid for one hour at room temperature under sterile conditions. The inserts were washed twice in phosphate buffered saline (PBS (Invitrogen)) and the Caco-2 cells seeded into the inserts at 9.6×10^5 cell/ml (75 μl per insert) in Growth Medium and 30 ml of Growth Medium added to the feeder plate below. The cells were left to attach to the collagen matrix and form monolayers over 48 hours at 37° C., 5% CO2. Both inserts and feeder plate were washed in PBS and the cells incubated with BD Entero-STIM™ Enterocyte Differentiation Medium containing MITO+™ Serum Extender solution (both BD Biosciences), 75 μl per insert and 30 ml in the feeder plate, for a further 48 hours at 37° C., 5% CO2.
(§3) Differentiated cell monolayers were washed gently in Dulbecco's Phosphate Buffered Saline containing CaCl2 and MgCl2 (PBS(+) (Invitrogen)) and the inserts transferred to a new Corning® HTS Transwell®-96 well receiver plate (Sigma). The cells were incubated with fresh PBS(+) (75 μl per insert and 225 μl per well) for 60 minutes at 37° C., 5% CO2. The PBS(+) was gently aspirated and replaced with 75 μl per insert of either 5 mM D-glucose (Sigma)±test active or 25 mM D-glucose±test active in triplicate and 225 μl per well of PBS(+) quickly added to each well. The 5 mM glucose wells and the 25 mM glucose wells were incubated at 37° C., 5% CO2 for 15 minutes and 30 minutes, respectively. Details of all the actives tested are found in table 1. The cell inserts were transferred to a new receiver plate, the supernatant gently aspirated from the cells and replaced with 100 μl of 100 μM of Lucifer Yellow (Sigma) solution to confirm the integrity of the monolayers. 225 μl of PBS(+) was added to each well and incubated at 37° C., 5% CO2 for 1 hour. The cell inserts were then discarded and the permeability of the membranes to Lucifer Yellow checked by measuring the fluorescence of the samples at 485 nm (excitation) and 530 nm (emission) on a Spectramax Gemini EM fluorescence microplate reader.
(§4) The amount of glucose transported across the cell monolayers was measured using a glucose assay based on Invitrogen's Amplex Red Glucose/Glucose oxidase Assay Kit. Briefly, 50 μl of each test sample was transferred to a black sided/clear bottom 96-well plate (Greiner Bio-One) to which 100 μl of reaction buffer (0.5 μl 10 mM Ampliflu Red, 1 μl 10 U/ml Horse Radish peroxidase, 1 μl 100 U/ml glucose oxidase and 97.5 μl PBS (all Sigma)) was added. After 10 minutes incubation at room temperature, the fluorescence of the samples were measured at 530 nm (excitation) and 590 nm (emission) on a Spectramax Gemini EM fluorescence microplate reader and the glucose concentration extrapolated from a standard curve.
(§5) At higher D-glucose concentrations, the SGLT1 transporter becomes saturated and consequently the majority of glucose transport across the monolayer is driven by the low affinity, high capacity GLUT2 transporter that is targeted to the apical membrane only following an initial SGLT1-dependent transport of glucose.

[2] = target: T2, SGLT1 (Homo sapiens, UniProt P13866); test: Glucose transport inhibitor cell screening assay, 5 mM D-glucose for 15 minutes (SGLT1 inhibition); assay type: cell-based; details: for Class (assigned class of transporter inhibited): assigned from % inhibition at 5 mM and 25 mM D-glucose in Caco-2 cells; for SGLT1 inhibitory activity (in words): Caco-2 cell model
T2 construct: endogenous in cells; host or cells: differentiated Caco-2 cell monolayers (ATCC)
T2 sequence (P13866 1-664): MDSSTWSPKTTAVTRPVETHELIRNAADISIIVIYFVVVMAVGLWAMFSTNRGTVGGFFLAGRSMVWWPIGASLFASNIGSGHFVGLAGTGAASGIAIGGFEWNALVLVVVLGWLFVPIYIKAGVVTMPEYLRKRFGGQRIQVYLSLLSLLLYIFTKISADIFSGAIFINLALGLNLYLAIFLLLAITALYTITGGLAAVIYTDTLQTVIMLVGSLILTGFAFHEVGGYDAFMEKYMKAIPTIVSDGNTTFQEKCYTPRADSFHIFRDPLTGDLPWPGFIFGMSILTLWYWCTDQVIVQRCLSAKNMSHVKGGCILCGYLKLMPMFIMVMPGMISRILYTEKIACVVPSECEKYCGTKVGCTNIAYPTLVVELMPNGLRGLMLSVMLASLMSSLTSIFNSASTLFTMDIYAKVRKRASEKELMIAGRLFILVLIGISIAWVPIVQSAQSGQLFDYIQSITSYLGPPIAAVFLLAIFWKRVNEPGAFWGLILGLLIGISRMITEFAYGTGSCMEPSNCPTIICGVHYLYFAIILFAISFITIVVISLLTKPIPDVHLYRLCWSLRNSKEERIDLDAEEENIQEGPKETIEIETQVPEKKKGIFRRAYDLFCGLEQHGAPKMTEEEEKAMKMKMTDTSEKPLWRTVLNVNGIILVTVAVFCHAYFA
Experimental: as §1, §2, §3, §4, §5

[3] = differentiated Caco-2 monolayer, 5 mM D-glucose, 15 minutes, active at 300 uM

inhibition at 300 µM [2, 3] [%]	inhibition at 150 µM [1] [%]	SGLT1 inhibitory activity (in words) ([2]; 5 mM D-glucose)	SMILES	% Glucose Transport inhibition 25 mM [1] [%]	Class (assigned class of transporter inhibited) [2]	% Glucose Transport inhibition 5 mM [2, 3] [%]
			O=c1cc(-c2ccc(O)cc2)oc2cc(OC3O[C@H](CO)[C@@H](O)[C@H](O)[C@H]3O)cc(O)c12 (stereo partly drawn) [Apigenin-7-glucoside]	12.81		
56.8	49.3		O=c1cc(-c2ccc(O)cc2)oc2cc(O)cc(O)c12 [Apigenin]		GLUT2 (GLUT2 inhibitors having ≧20% inhibition at both 5 mM and 25 mM D-glucose levels)	
		inhibition of SGLT1	OC[C@H]1O[C@@H](Oc2cc3c(O)cc(O)cc3[o+]c2-c2ccc(O)c(O)c2)[C@H](O)[C@@H](O)[C@@H]1O [Cyanidin-3-glucoside]		SGLT1	
		absence of SGLT1 inhibitory activity	C[C@@H]1O[C@@H](OC[C@H]2O[C@@H](Oc3cc4c(O)cc(O)cc4[o+]c3-c3ccc(O)c(O)c3)[C@H](O)[C@@H](O)[C@@H]2O)[C@H](O)[C@H](O)[C@H]1O [Cyanidin-3-rutinoside]		None	
		inhibition of SGLT1	O=c1c(-c2ccc(O)cc2)coc2c([C@@H]3O[C@H](CO)[C@@H](O)[C@H](O)[C@H]3O)c(O)ccc12 [Daidze in-8-C-glucoside]		SGLT1	
		inhibition of SGLT1	OC[C@H]1O[C@@H](Oc2cc3c(O)cc(O)cc3[o+]c2-c2cc(O)c(O)c(O)c2)[C@H](O)[C@@H](O)[C@@H]1O [Delphinidin-3-glucoside]		SGLT1	
			Oc1cc(O)c2cc(O)c(-c3cc(O)c(O)c(O)c3)[o+]c2c1 [Delphinindin]	15.86		
		inhibition of SGLT1	O=C1C[C@@H](c2ccc(O)c(O)c2)Oc2cc(O[C@@H]3O[C@H](CO)[C@@H](O)[C@H](O)[C@H]3O)cc(O)c21 [Eriodictiol-7-O-glucoside]	4.98	SGLT1	
56.5	57.7		O=c1c(-c2ccc(O)cc2)coc2cc(O)cc(O)c12 [Genistein]		GLUT2 (GLUT2 inhibitors having ≧20% inhibition at both 5 mM and 25 mM D-glucose levels)	
72.3	74.4		COc1ccc([C@@H]2CC(=O)c3c(O)cc(O)cc3O2)cc1O [Hesperetin]		GLUT2 (GLUT2 inhibitors having ≧20% inhibition at both 5 mM and 25 mM D-glucose levels)	
26	32.4		O=c1c(O)c(-c2ccc(O)cc2)oc2cc(O)cc(O)c12 [Kaempferol]		GLUT2 (GLUT2 inhibitors having ≧20% inhibition at both 5 mM and 25 mM D-glucose levels)	
77.4	63.2		O=c1cc(-c2ccc(O)c(O)c2)oc2cc(O)cc(O)c12 [Luteolin]		GLUT2 (GLUT2 inhibitors having ≧20% inhibition at both 5 mM and 25 mM D-glucose levels)	
76.8	55		O=c1c(O)c(-c2cc(O)c(O)c(O)c2)oc2cc(O)cc(O)c12 [Myricetin]		GLUT2 (GLUT2 inhibitors having ≧20% inhibition at both 5 mM and 25 mM D-glucose levels)	
69	57		O=C1C[C@@H](c2ccc(O)cc2)Oc2cc(O)cc(O)c21 [Naringenin]		GLUT2 (GLUT2 inhibitors having ≧20% inhibition at both 5 mM and 25 mM D-glucose levels)	
4.07			Oc1ccc(-c2[o+]c3cc(O)cc(O)c3cc2O)cc1 [Pelargonidin]			
47.7	48.1		O=C1C[C@@H](c2ccccc2)Oc2cc(O)cc(O)c21 [Pinocembrin]		GLUT2 (GLUT2 inhibitors having ≧20% inhibition at both 5 mM and 25 mM D-glucose levels)	
		destroys this inhibitory action	O=c1c(O[C@@H]2O[C@H](CO)[C@@H](O)[C@H](O)[C@H]2O)c(-c2ccc(O[C@@H]3O[C@H](CO)[C@@H](O)[C@H](O)[C@H]3O)c(O)c2)oc2cc(O)cc(O)c12 [Quercetin-3,4′-diglucoside]		None	
		lack of SGLT1 inhibitory activity	OC[C@H]1O[C@@H](Oc2ccc(O)cc2)[C@H](O)[C@@H](O)[C@@H]1O [arbutin]			

SMILES	inhibition at 300 µM [2, 3] [%]	inhibition at 150 µM [1] [%]	SGLT1 inhibitory activity (in words) ([2]; 5 mM D-glucose)	% Glucose Transport inhibition 25 mM [1] [%]	Class (assigned class of transporter inhibited) [2]	% Glucose Transport inhibition 5 mM [2, 3] [%]
Oc1cc(O)c2cc(O)c(-c3ccc(O)c(O)c3)[o+]c2c1 [Cyanidin]	7.93	3.21				
O=c1c(-c2ccc(O)cc2)coc2cc(O[C@@H]3O[C@H](CO)[C@@H](O)[C@H](O)[C@H]3O)ccc12 [Daidzein-7-glucoside]			inhibition of SGLT1	7.23	SGLT1	35.03
COc1cc(-c2[o+]c3cc(O)cc(O)c3cc2O[C@@H]2O[C@H](CO)[C@H](O)[C@H](O)[C@H]2O)cc(OC)c1O [Malvidin 3-O-Galactoside]			absence of SGLT1 inhibitory activity	10.41	None	
COc1cc(-c2[o+]c3cc(O)cc(O)c3cc2O[C@@H]2O[C@H](CO)[C@@H](O)[C@H](O)[C@H]2O)cc(OC)c1O [Malvidin-3-O-glucoside]			inhibition of SGLT1	10.91	SGLT1	
O=C(CCc1ccc(O)cc1)c1c(O)cc(O)cc1O [Phloretin, reference compound]		76.1				
